Data as given in patent US20080221056A1, “Early Detection and Prognosis of Colon Cancers” (JOHNS HOPKINS UNIVERSITY, priority 2007, published 2008).

System: HCT116 cells
Test: Whole transcriptome microarray of gene re-expression in drug-treated CRC cells (11 hypermethylated guide genes)
Type: cell-based, human
Protocol: Cell culture and treatment. HCT116 cells and isogenic genetic knockout derivatives were maintained as previously described (14). For drug treatments, log phase CRC cells were cultured in McCoys 5A media (Invitrogen) containing 10% BCS and 1× penicillin/streptomycin with 5 μM 5aza-deoxycytidine (DAC) (Sigma; stock solution: 1 mM in PBS) for 96 hours, replacing media and DAC every 24 hours. Cell treatment with 300 nM Trichostatin A (Sigma; stock solution: 1.5 mM dissolved in ethanol) was performed for 18 hours. Control cells underwent mock treatment in parallel with addition of equal volume of PBS or ethanol without drugs.
Microarray analysis. Total RNA was harvested from log phase cells using Triazol (Invitrogen) and the RNeasy kit (Qiagen) according to the manufacturers instructions, including a DNAase digestion step. RNA was quantified using the Nanoprop ND-100 followed by quality assessment with 2100 Bioanalyzer (Agilent Technologies). RNA concentrations for individual samples were greater than 200 ng/ul, with 28s/18s ratios greater than 2.2 and RNA integrity of 10 (10 scored as the highest). Sample amplification and labeling procedures were carried out using the Low RNA Input Fluorescent Linear Amplification Kit (Agilent Technologies) according to the manufacturers instructions. The labeled cRNA was purified using the RNeasy mini kit (Qiagen) and quantified. RNA spike-in controls (Agilent Technologies) were added to RNA samples before amplification. 0.75 microgram of samples labeled with Cy3 or Cy5 were mixed with control targets (Agilent Technologies), assembled on Oligo Microarray, hybridized, and processed according to the Agilent microarray protocol. Scanning was performed with the Agilent G2565BA microarray scanner using settings recommended by Agilent Technologies.
Data analysis. All arrays were subject to quality checks recommended by the manufacturer. […] The log ratio of red signal to green signal was calculated after background-subtraction and LoEss normalization as implemented in the limma package from Bioconductor (25,26). […]

Row | Structure (SMILES) | guide genes increased 1.3 fold or more (total) (5 μM DAC for 96 hours, 11 known hypermethylated, silenced guide genes) [%] | guide genes increased 2-fold or more (5 μM DAC for 96 hours, 11 known hypermethylated, silenced guide genes (5 of 11)) [%] | response of guide gene expression to TSA (300 nM Trichostatin A for 18 hours, zone = expression increase <1.4 fold)
1 | Nc1ncn([C@H]2C[C@H](O)[C@@H](CO)O2)c(=O)n1 [DAC, 5-aza-2′-deoxycytidine] | 73 | 45 | 
2 | CC(/C=C/C(=O)NO)=C\[C@@H](C)C(=O)c1ccc(N(C)C)cc1 [TSA, trichostatin A] |  |  | All tested genes remained within the TSA non-responsive zone
